Experiments:
[1] = Drug stability in biological fluid (LC-MS/MS method validation); type: in vitro ADME; settings: human plasma, LQC and HQC; freshly prepared, post-processing (auto-injector, 73:43 hours), short-term (72:21 hours), freeze-thaw (4 cycles) at -20 °C and -70 °C, long-term 90 days at -20 °C and -70 °C; demonstrating stability
Experimental: criteria for RE and CV must not exceed 15% for QC and 20% for LLOQ. All stability assays were performed to cover the conditions anticipated for handling real samples: freshly prepared, post-processing, short-term, freeze–thaw, and long-term were evaluated at concentrations of LQC and HQC. RE and CV were used to check possible variations.
2.4. Determination of Etodolac Pharmacokinetic
Following Food and Drug Administration (FDA) guidelines, blood samples were drawn up to a period of three to ﬁve times the terminal elimination half-life (t1/2), and the mean AUC0–t/AUC0–∞ ratio was required to be higher than 80%. The area under the concentration–time curve (AUC0–t) was calculated from time 0 to time t. The total area under the curve (AUC0–∞) was obtained up to […], and extrapolations were performed using the last measurable concentration and the terminal elimination rate constant (Ke). The terminal elimination rate constant, Ke, was estimated from the slope of the terminal […] of the plasma of the etodolac concentration–time curve (by means of the linear regression method) adjusted in the last three values. The terminal elimination half-life, t1/2, was then obtained as 0.693/Ke. […]

[2] = Adverse events monitoring by clinical evaluation and laboratory tests after single dose
[3] = 37 healthy volunteers, single dose 500 mg
[4] = Adverse event: Alanine Aminotransferase Increased
[5] = Adverse event: Alkaline Phosphatase Increased
[6] = Adverse event: Altered Erythrogram
[7] = Adverse event: Altered Leukogram
[8] = Adverse event: Decreased Platelet Count
[9] = Adverse event: Fastting Glucose Increased
[10] = Adverse event: Increased Total Bilirubin and Fractions
[11] = Adverse event: Total Cholesterol Increased

With CCc1cccc2c3c([nH]c12)C(CC)(CC(=O)O)OCC3 (stereo not shown) [Etodolac] the “drug stability in biological fluid: precision and accuracy values” [1] was “below 15%”, the “adverse events: intensity (all events)” value [2, 3] was “mild” and the “adverse events: predictability (all events)” value [2, 3] was “not expected”. For the same compound, the “adverse events recorded (total)” value ([2]; 37 healthy volunteers, single dose 500 mg, results outside reference values) was 19, the “Intensity (Mild / Moderate / Severe / Lethal)” value [2, 4] was “Mild” and the “Predictability (Expected / Not Expected)” value [2, 4] was “Not Expected”. The Events count ([2]; Adverse event: Alanine Aminotransferase Increased, 37 healthy volunteers, single dose 500 mg) was 3, the “Intensity (Mild / Moderate / Severe / Lethal)” value [2, 5] was “Mild” and the “Predictability (Expected / Not Expected)” value [2, 5] was “Not Expected”. For the same compound, the Events count ([2]; Adverse event: Alkaline Phosphatase Increased, 37 healthy volunteers, single dose 500 mg) was 1, the “Intensity (Mild / Moderate / Severe / Lethal)” value [2, 6] was “Mild” and the “Predictability (Expected / Not Expected)” value [2, 6] was “Not Expected”. The Events count ([2]; Adverse event: Altered Erythrogram, 37 healthy volunteers, single dose 500 mg) was 3, the “Intensity (Mild / Moderate / Severe / Lethal)” value [2, 7] was “Mild” and the “Predictability (Expected / Not Expected)” value [2, 7] was “Not Expected”. The Events count ([2]; Adverse event: Altered Leukogram, 37 healthy volunteers, single dose 500 mg) was 3, the “Intensity (Mild / Moderate / Severe / Lethal)” value [2, 8] was “Mild” and the “Predictability (Expected / Not Expected)” value [2, 8] was “Not Expected”. The Events count ([2]; Adverse event: Decreased Platelet Count, 37 healthy volunteers, single dose 500 mg) was 1, the “Intensity (Mild / Moderate / Severe / Lethal)” value [2, 9] was “Mild” and the “Predictability (Expected / Not Expected)” value [2, 9] was “Not Expected”. The Events count ([2]; Adverse event: Fastting Glucose Increased, 37 healthy volunteers, single dose 500 mg) was 3, the “Intensity (Mild / Moderate / Severe / Lethal)” value [2, 10] was “Mild” and the “Predictability (Expected / Not Expected)” value [2, 10] was “Not Expected”. For the same compound, the Events count ([2]; Adverse event: Increased Total Bilirubin and Fractions, 37 healthy volunteers, single dose 500 mg) was 1, the “Intensity (Mild / Moderate / Severe / Lethal)” value ([2]; Adverse event: Leukocyturia) was “Mild” and the “Predictability (Expected / Not Expected)” value ([2]; Adverse event: Leukocyturia) was “Not Expected”. For the same compound, the Events count ([2]; Adverse event: Leukocyturia, 37 healthy volunteers, single dose 500 mg) was 1, the “Intensity (Mild / Moderate / Severe / Lethal)” value [2, 11] was “Mild” and the “Predictability (Expected / Not Expected)” value [2, 11] was “Not Expected”. For the same compound, the Events count ([2]; Adverse event: Total Cholesterol Increased, 37 healthy volunteers, single dose 500 mg) was 3.

Source: paper PMC11768370, “Etodolac Single Dose Metabolic Profile Elucidation: Pharmacokinetics and Adverse Events in Healthy Volunteers” (Pharmaceuticals, 2025)
